Source: US6338963B1, “Use of carbon monoxide dependent guanylyl cyclase modifiers to stimulate neuritogenesis” (NeoTherapeutics, Inc., priority 1994, dated 2002)
Marks after values point to notes of the source that are not given here.

Key:
S100β protein = assay: Western blot of astrocyte cytosolic proteins: S100β; assay type: cell-based, rat; settings: 100 μM AIT-082
C57BL/6 mice [1] = assay: Win-shift duration of memory trace, C57BL/6 mice; assay type: in vivo; settings: for Correct (Mean score ± S.E.) / No. above chance/Total #: AIT-082 30 mg/kg
Procedure: (§1) To determine the duration of the memory trace, subjects were administered drug or saline and 30 minutes (PHY) or 1 hour (AIT-082 or THA) later they were given a single reference run with the milk reward in both goal boxes. After the indicated inter-trial delay, subjects were returned to the start box and given the first test trial with the milk reward only in the goal box opposite to the one entered on the previous correct trial. The subjects were given 10 trials with the reward alternating only after correct responses.
Previous work has established that normal adult Swiss Webster mice have a memory trace duration of 60 seconds in the win-shift paradigm which may be increased by the administration of AIT-082.

BDNF = assay: Summary of effects on growth factor mRNA and protein (Table R): BDNF; parameters: key: ± = mRNA; + = protein; nt = not tested
Text: (§2) The constellation of effects of AIT-082 on production of mRNA encoding growth factors and on production of growth factor proteins is shown in Table R. The results summarized in […] show both transcriptional and translational effects on growth factors that are in the categories of neurotrophins, pleiotrophins, members of the S100 family of EF hand calcium binding proteins, and members of the TGFβ superfamily. As indicated, effects have been shown at both the mRNA (transcriptional) and protein (translational) levels.

TGFβ1 = assay: Summary of effects on growth factor mRNA and protein (Table R): TGFβ1; parameters: key: ± = mRNA; + = protein; nt = not tested; settings: Cultured Cells
Text: as §2

S100β = assay: Summary of effects on growth factor mRNA and protein (Table R): S100β; parameters: key: ± = mRNA; + = protein; nt = not tested; settings: Cultured Cells
Text: as §2

C57BL/6 mice [2] = assay: Ethanol-induced working memory deficit (win-shift); assay type: in vivo; settings: Ethanol 0.5 gm/kg i.p. + AIT-082 30 mg/kg i.p. 1 hour prior
Procedure: Six month old male C57BL/6 mice were evaluated in the win-shift model in combination with treatment with ethanol, a non-specific memory suppressant, and AIT-082. Subjects were treated with saline (control) or AIT-082 (30 mg/kg. i.p.) 1 hour prior to testing. Ethanol was administered at a dose of 0.5 gm/kg i.p. ten minutes prior to testing.

acetylcholine receptors = assay type: binding, mouse
Swiss Webster mice = assay: Win-shift T-maze memory test, Swiss Webster mice; assay type: in vivo; settings: for Win-shift Memory Test, Correct responses: 90-second inter-trial interval
Procedure: Male Swiss Webster mice six months (young adult) and eleven months (old) of age, obtained from the National Institute on Aging, were maintained in individual cages, on a […] light/dark cycle with continuous access to water. Food was limited so that the mice stabilized at 80% of free feeding weight. Mice were weighed and handled daily for one week. The win-shift model was run as described in the literature and consists of a T-maze in which the correct response alternates after each correct trial. The interval between trials is varied and allows for the determination of the longest period between trials that a subject can remember the correct response on the previous trial. This allows the measure of the duration of the memory trace. […] The reward goal box is alternated after each correct trial. Ten trials per mouse are run each day. […] The latency time to leave the start box is recorded as a measure of motivation, the running time (the time from leaving the start box to reaching the goal box) is recorded as a measure of performance, and the number of correct responses as a measure of memory.
The drugs used in this example are 4-((3-(1,6-dihydro-6-oxo-9-purin-9-yl)-1-oxopropyl)amino) benzoic acid (AIT-082), as an exemplary potassium salt, tacrine hydrochloride (tetrahydroaminoacridine, THA, Sigma Chemical Co., St. Louis, Mo.), and physostigmine, hemisulfate salt (PHY, Sigma Chemical Co., St. Louis, Mo.). The drugs were dissolved in saline and prepared fresh daily. All injections were made at a volume of 0.1 ml/10 grams body weight. When testing drug effects, intraperitoneal (i.p.) injections of AIT-082 or THA were made one hour prior to the start of testing. Due to its shorter duration of action, PHY was injected 30 minutes prior to testing. Control subjects receive a similar injection of saline (vehicle).
as §1
To determine if tolerance to the biological effects of AIT-082 developed, drug or saline was administered daily for 18 days prior to the testing in the standard win-shift paradigm.

SMILES: O=C(CCn1cnc2c(=O)[nH]cnc21)Nc1ccc(C(=O)O)cc1 [AIT-082, N-4-carboxyphenyl-3-(6-oxohydropurin-9-yl)propanamide]
- ex novo synthesis of S100β protein (S100β protein): did not stimulate ex novo synthesis of S100β protein
- duration of the memory trace (C57BL/6 mice [1]; AIT-082 30 mg/kg i.p., untreated 120 seconds): over 210 seconds
- Correct (Mean score ± S.E.) (C57BL/6 mice [1]; inter-trial interval 180 sec): 70 ± 15
- No. above chance/Total # (C57BL/6 mice [1]; inter-trial interval 180 sec): 4/6
- Correct (Mean score ± S.E.) (C57BL/6 mice [1]; inter-trial interval 210 sec): 78 ± 15
- No. above chance/Total # (C57BL/6 mice [1]; inter-trial interval 210 sec): 4/6
- Correct (Mean score ± S.E.) (C57BL/6 mice [1]; inter-trial interval 240 sec): 50 ± 6
- No. above chance/Total # (C57BL/6 mice [1]; inter-trial interval 240 sec): 0/6
- Correct (Mean score ± S.E.) (C57BL/6 mice [1]; inter-trial interval 270 sec): 50 ± 6
- No. above chance/Total # (C57BL/6 mice [1]; inter-trial interval 270 sec): 0/6
- BDNF, effect on mRNA/protein production (BDNF; Aged Brain): +
- BDNF, effect on mRNA/protein production (BDNF; Lesioned Spinal Cord): ±
- BDNF, effect on mRNA/protein production (BDNF; Normal Brain): +
- BDNF, effect on mRNA/protein production (BDNF; Normal Spinal Cord): +
- TGFβ1, effect on mRNA/protein production (TGFβ1): +
- S100β, effect on mRNA/protein production (S100β): +
- Correct trials (mean number of correct responses per 10 trials ± S.E.) (C57BL/6 mice [2]): 7.89 ± 0.54
- interference with the binding of QNB (acetylcholine receptors): no effect
- Win-shift Memory Test, Correct responses (Swiss Webster mice; AIT-082 0.5 mg/kg i.p.): 6.5* Correct responses/10 trials
- Win-shift Memory Test, Correct responses (Swiss Webster mice; AIT-082 30.0 mg/kg i.p.): 8.2* Correct responses/10 trials
- Tolerance (Swiss Webster mice; AIT-082 30.0 mg/kg daily for 18 days prior to win-shift testing): 7.6* Correct responses/10 trials
- onset of action (Swiss Webster mice; data not shown): 1 h
- duration of action (Swiss Webster mice; single dose of 60 mg/kg): more than seven days
